Laboratory results from patent publication US12624004B2 (Fudan University, priority 2019, dated 2026).
Structures can show the parent of a compound that is named as a salt. Where two headings read alike, the source gives them in different places.

Legend:
κ opioid receptor = biological target: T1, κ opioid receptor (Homo sapiens, UniProt P41145); assay: Competition binding assay on membranes of CHO cells expressing κ opioid receptor, [3H]-labeled ligand; conditions: for Ki: read-out: κOR Ki
T1 construct: expressed in transfected cells; host or cells: CHO cells (membranes)
Outline: (§1)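 CHO membranes (20–30 μg protein) incubated with [3H]-labeled ligand at 1–2 nM and test compounds, 30 min at 30° C; nonspecific binding with 1 μM corresponding ligand. Filtered on GF/C, washed with 50 mM Tris-HCl pH 7.4, scintillation-counted. IC50 converted to Ki by Ki=IC50/(1+[L]/Kd).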

δ opioid receptor = biological target: T2, δ opioid receptor (Homo sapiens, UniProt P41143); assay: Competition binding assay on membranes of CHO cells expressing δ opioid receptor, [3H]-labeled ligand; conditions: for Ki: read-out: δOR Ki
T2 construct: expressed in transfected cells; host or cells: CHO cells (membranes)
Outline: as §1

μ opioid receptor = biological target: T3, μ opioid receptor (Homo sapiens, UniProt P35372); assay: Competition binding assay on membranes of CHO cells expressing μ opioid receptor, [3H]-labeled ligand; conditions: for Ki: read-out: μOR Ki
T3 construct: expressed in transfected cells; host or cells: CHO cells (membranes)
Outline: as §1

Female mice = assay: In vivo hot plate method analgesia test; conditions: intraperitoneal; for Maximum percentage effective analgesia (% MPE): Table 5-2, hot plate 55° C.
Outline: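 Female mice (~20 g) on a 55° C hot plate, hindpaw response latency as pain threshold (pre-screen 5–30 s, 60 s cut-off). Latencies at 15, 30, 60 and 120 min after intraperitoneal dosing. %MPE = (post−pre latency)/(60−pre)×100, ED50 derived from %MPE.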

## COc1cccc(C2(O)CCN(C(=O)NC34CC5CC(CC(C5)C3)C4)CC2CN(C)C)c1 [FWBF14, N-((3S,5S,7S)-adamantan-1-yl)-3-((dimethylamino)methyl)-4-hydroxy-4-(3-methoxyphenyl) piperidine-1-carboxamide hydrochloride]
κ opioid receptor; 0.5 h, Table 3-1, 1 μM concentration of compounds, read-out: κOR Binding rate (%)
  inhibition at 1 µM: 17.9 ± 4.8%
δ opioid receptor; 0.5 h, Table 3-1, 1 μM concentration of compounds, read-out: δOR Binding rate (%)
  inhibition at 1 µM: 0%
μ opioid receptor; Table 3-1, 1 μM concentration of compounds, read-out: μOR Binding rate (%)
  inhibition at 1 µM: 13.5 ± 4.8%
Female mice; Table 3-2, hot plate 55° C., 10 mg/kg dose
  % MPE @ 10 mg/kg: 24.15%

## COc1cccc(C2(O)CCN(S(=O)(=O)CCc3ccccc3)CC2CN(C)C)c1.Cl (stereo not drawn) [FWBH9, 3-((Dimethylamino)methyl)-4-(3-methoxyphenyl)-1-(phenethylsulfonyl)piperidin-4-ol hydrochloride]
κ opioid receptor; 0.5 h, Table 2-1, 1 μM concentration of compound, read-out: κOR Binding rate (%)
  inhibition at 1 µM: 8.41 ± 1.66%
δ opioid receptor; 0.5 h, Table 2-1, 1 μM concentration of compound, read-out: δOR Binding rate (%)
  inhibition at 1 µM: 0%
μ opioid receptor; Table 2-1
  Ki: 1.79 ± 2 nM
Female mice; Table 2-2, hot plate 55° C., 5 mg/kg dose
  % MPE (5 mg/kg): 100%

## COc1cccc(C2(O)CCN(C(=O)Cc3cccc(Cl)c3)CC2CN(C)C)c1.Cl (stereo not drawn) [FWBE9, 2-(3-Chlorophenyl)-1-(3-((dimethylamino)methyl)-4-hydroxy-4-(3-methoxyphenyl)piperidin-1-yl)ethyl-1-one hydrochloride]
κ opioid receptor; Table 5-1
  Ki: 1010 ± 60.1 nM
δ opioid receptor; Table 5-1
  Ki: 1640 ± 148 nM
μ opioid receptor; Table 5-1
  Ki: 24.2 nM
Female mice; 10 mg/kg dose
  Maximum percentage effective analgesia (% MPE): 86.38%

## COc1cccc(C2(O)CCN(C(=O)Cc3ccc(Cl)cc3)CC2CN(C)C)c1.Cl (stereo not drawn) [FWBE19, 2-(4-Chlorophenyl)-1-(3-((dimethylamino)methyl)-4-hydroxy-4-(3-methoxyphenyl)piperidin-1-yl)ethyl-1-one hydrochloride]
κ opioid receptor; 0.5 h, Table 5-1, 1 μM concentration of compound, read-out: κOR Combination rate (%)
  inhibition at 1 µM: 39.4 ± 4.5%
δ opioid receptor; 0.5 h, Table 5-1, 1 μM concentration of compound, read-out: δOR Combination rate (%)
  inhibition at 1 µM: 0%
μ opioid receptor; 0.5 h, Table 5-1, 1 μM concentration of compound, read-out: μOR Combination rate (%)
  inhibition at 1 µM: 25.2 ± 5.2%
Female mice; 10 mg/kg dose
  Maximum percentage effective analgesia (% MPE): 73.98%

## COc1cccc(C2(O)CCC(NS(=O)(=O)c3cccs3)CC2CN(C)C)c1.Cl (stereo not drawn) [N-(3-((Dimethylamino)methyl)-4-hydroxy-4-(3-methoxyphenyl)cyclohexyl)thiophene-2-sulfonamide hydrochloride]
κ opioid receptor; 0.5 h, Table 1-1, 10 μM concentration of compound, read-out: κOR Binding rate (%)
  inhibition at 10 µM: 37 ± 6.8%
δ opioid receptor; 0.5 h, Table 1-1, 10 μM concentration of compound, read-out: δOR Binding rate (%)
  inhibition at 10 µM: 0%
μ opioid receptor; Table 1-1, 10 μM concentration of compound, mean ± SD of three measurements, read-out: μOR Binding rate (%)
  inhibition at 10 µM: 57 ± 4.8%
Female mice; Table 1-2, hot plate 55° C., 5 mg/kg dose
  Maximum percentage effective analgesic (% MPE): 19.5%

## COc1cccc(C2(O)CCN(C(=O)Cn3ccc4ccccc43)CC2CN(C)C)c1.Cl (stereo not drawn) [FWBE14, 1-(3-((Dimethylamino)methyl)-4-hydroxy-4-(3-methoxyphenyl)piperidin-1-yl)-2-(1H-indol-1-yl)ethyl-1-one hydrochloride]
κ opioid receptor; Table 5-1
  Ki: 4060 ± 382 nM
δ opioid receptor; Table 5-1
  Ki: 1180 ± 220 nM
μ opioid receptor; Table 5-1
  Ki: 72.9 ± 0.1 nM
Female mice; 10 mg/kg dose
  Maximum percentage effective analgesia (% MPE): 54.23%
